Assay [1] has as its system recto-anus swelling induced by croton oil. Briefly: Croton oil-induced hemorrhoid model in rats (swelling of the recto-anus, RAC). The following applies: with croton oil (3%) induction, 24 h after induction; oral once per day for five days; 20 mg/kg carnitines, 30 mg/kg flavonoids; male SD rats, n = 5. It counts as in vivo, rat. The procedure:
Male SD rats (6 weeks old, approximately 140 g) were purchased from Harlan Sprague Dawley and allowed to acclimate for 1 week. The rats were maintained in a pathogen-free facility in accordance with the National Research Council of Laboratory Animal care and use guidelines. Each experiment was preformed with age-matched rats 7-8 weeks old. The croton oil-induced hemorrhoid model in rats was performed according to the method published by Nishiki (Nishiki et al. (1988) Folia Pharmacology Japan 92:215-225; Nishiki et al. (1988) Folia Pharmacol. Japan 92:227-240). Briefly, a cotton swab with a diameter of 4 mm soaked with 0.16 mL of inducer (deionized water:pyridine:ethyl ether:6% croton oil/ethyl ether (1:4:5:10) was applied to the rat's anus for 12 seconds. The final concentration of croton oil was 3%. The edema developed linearly until 7-8 hours after application and the severity of the edema was sustained for more than 24 hours. Twenty-four hours later, recto-anus tissue (approx. 10 mm long) was isolated after the rats were euthanized. The weights of rat body and recto-anus were measured. The recto-anus coefficient (RAC) was calculated using the formula: weight of recto-anus (mg)/body weight (g). […]
Twenty-four hours after hemorrhoid induction with croton oil the RAC of rats was determined.

Assay [2] concerns isolated aorta from spontaneously hypertensive rats. Briefly: Relaxant effect on aortic rings precontracted by phenylephrine. Also noted: species or system rat. The following applies: 100 micro-molar each component, final concentration in organ chamber; rings precontracted by phenylephrine (1 micromolar); n=8. The procedure: The objective of this study was to investigate the vasoarelaxation effects of the compositions of the invention using isolated aorta from spontaneously hypertensive rats. The compounds tested were used at a concentration expressed as final concentration in the organ chamber. Male spontaneously hypertensive rats (SHR) 10-12 weeks old, weighing 250-300 g, were housed at 24±2° C. with 60±20% relative humidity, on a 12-h light-dark cycle. Rats were given free access to a diet of standard food and water. All experiments were performed according to the guidelines for the ethical treatment of animals of the European Union. The rats were killed by cervical dislocation and the aortae were rapidly dissected. […] Aortic rings were mounted under a basal tension of 2 g in 20 mL organ baths containing PSS and attached to an isometric transducer (Harvard UF-1); the signal was recorded by a Powerlab data acquisition system (AD-Instruments). […] The relaxant effect of compounds tested was assessed by adding the compound to aortic rings precontracted by phenylephrine (1 micromolar). […] All the results were expressed as a percentage of the maximal contraction of phenylephrine-induced responses. Results are expressed as percentages from the initial precontraction level. The significance was calculated on the actual contraction values means±SE (n=8 aorta preparations per group). […]

With `CCC(=O)O[C@H](CC(=O)[O-])C[N+](C)(C)C` [Propionyl L-carnitine, propionyl L-carnitine], the “RAC (recto-anus coefficient: weight of recto-anus (mg)/body weight (g))” value in assay [1] stood at 1.96. In addition, the “% RELAXATION” value in assay [2] is given as 28%.

Regarding `COc1ccc([C@@H]2CC(=O)c3c(O)cc(O[C@@H]4O[C@H](CO[C@@H]5O[C@@H](C)[C@H](O)[C@@H](O)[C@H]5O)[C@@H](O)[C@H](O)[C@H]4O)cc3O2)cc1O` [Hesperidine, hesperidine], the “RAC (recto-anus coefficient: weight of recto-anus (mg)/body weight (g))” value in assay [1] was found to be 2.07. Also, in assay [2], the “% RELAXATION” value stood at 9%.

For the origin of these results see patent US9457037B2, “Combination composition, comprising as active ingredients L-carnitine or propionyl L-carnitine, for the prevention or treatment of chronic venous insufficiency” (SIGMA-TAU INDUSTRIE FARMACEUTICHE RIUNITE S.P.A., priority 2010, dated 2016).
